This is an account of results in article PMC7914304 (Bioorganic & medicinal chemistry, 2020).

Broadly, the logP is the decadic logarithm of the partition coefficient of the neutral form, usually between octanol and water. High values mean a more lipophilic compound, low ones a more hydrophilic compound. As usually defined, the AUC is concentration integrated over time. Broadly, the Cmax is the peak of the concentration-time curve. In general, Tmax refers to the time from dosing to the highest level.

Read-outs that look alike come from different tables or passages of the source.

The nature of one series: logP by HPLC method. The series is classed as physicochemical.
For series [1] the following is noted: mice, oral, cited from earlier work.

The compound `CC[C@H](C)C(=O)N1CCC(NC(=O)Nc2ccc(OC(F)(F)F)cc2)CC1` [compound 3] came in with a logP in the series “logP by HPLC method” of 3.97. Further, in series [1] (0.3 mg/kg), the AUC is 2.53 µM·h, the highest concentration (Cmax) is 195 nM, the T1/2 is given as 7.7 h and the Tmax is on record as 4 h.
Regarding `CC(=O)N1CCC(NC(=O)NC23CC4CC(CC(C4)C2)C3)CC1` [inhibitor 1], in series [1] (0.5 mg/kg), the AUC is 0.183 µM·h, the Cmax was 30 nM, the T1/2 is listed as 3 h and the Tmax is recorded as 1 h.
